This is an account of results in patent EP0503044B1, “PEPTIDE COMPOUNDS OF LAEVOROTATORY AMINO ACIDS AND RING MOLECULES, AND THERAPEUTICAL APPLICATIONS THEREOF” (POLIFARMA S.p.A., priority 1990, dated 1992).

Square brackets hold non-standard residues; d marks the D form. Peptide text beside a SMILES is read from it. * marks the point of attachment. Trp(1-Me) = Cn1cc(C[C@H](N)C(=O)O)c2ccccc21; Hyp = O=C(O)[CH]1C[CH](O)CN1; Phg = N[CH](C(=O)O)c1ccccc1; pGlu = O=C1CC[CH](C(=O)O)N1; Pip = O=C(O)[C@@H]1CCCCN1; ΔPro = O=C(O)[CH]1C=CCN1; Cbz = O=C(OCc1ccccc1)*; Aze = O=C(O)[CH]1CCN1; Boc = CC(C)(C)OC(=O)*

The nature of experiment [1]: Hot Plate test (analgesic activity). The experiment is classed as in vivo. The text has this: (§1) In the following examples will first of all be given the data necessary for synthesis of the compounds according to the present invention. There will then be given data regarding their pharmacological activity, using methods widely known to be valid. In particular, for the pressure tests, spontaneously hyper-tensive rats were used (SHR from the company Charles River), operated in such a way as to enable pressure to be read even when the animals were awake and free to move. In order to evaluate the analgesic activity, the Hot Plate and Writhing Tests were used. For the anti-inflammatory effect the test of carraginine edema was used. Finally, for immuno-modulating activity the evaluation of the stimulation of growth of human lymphocites in culture was resorted to, after the addition of specific antigens. The results obtained for each synthesized compound are given at the end of each example.
Background: Hot-plate and tail-flick tests time the reaction to a heat stimulus.

Experiment [2] relates to spontaneously hyper-tensive rats (SHR from the company Charles River). Nature of the experiment: Pressure test in awake spontaneously hypertensive rats (anti-hypertensive activity). It counts as in vivo.
Text: as §1, with “antigens.” for “antigens. The results obtained for each synthesized compound are given at the end of each example.”

A further experiment deals with carraginine edema. As to the kind of experiment: Carrageenin edema test (anti-inflammatory effect). It counts as in vivo. The settings on record: dose not stated.
Text: as §1, with “antigens.” for “antigens. The results obtained for each synthesized compound are given at the end of each example.”
(In general: Carrageenan injected into the paw causes an acute inflammation.)

Experiment [3] deals with human lymphocites in culture. Nature of the experiment: Stimulation of growth of human lymphocytes in culture after addition of specific antigens (immuno-modulating activity). The experiment is classed as cell-based.
Text: as §1

Experiment [4] in a line: Analgesic activity, test not given (Hot Plate and Writhing Tests used). It counts as in vivo. The settings on record: test and dose not stated.
Text: as §1, with “antigens.” for “antigens. The results obtained for each synthesized compound are given at the end of each example.”
In general terms: Writhing tests count abdominal constrictions after an irritant is injected.

A short description of experiment [5]: Writhing test (analgesic activity). The experiment is classed as in vivo. The settings on record: dose not stated.
Text: as §1

On to `COC(=O)[C@@H](NC(=O)[C@H](C)NC(=O)[C@@H]1CCCN1C(=O)OCc1ccccc1)c1ccccc1` [compound 5, Z-(L)-Pro(L)-Ala-(L)-PhgOMe] (Cbz-Pro-Ala-[Phg]-OMe), for which the “analgesic effect using the Hot Plate test” value in experiment [1] (dose not stated) was “moderate”. Besides, the anti-hypertensive effect result in experiment [2] (8 mg/Kg i.p.) was “bland”.
For `COC(=O)[C@H](Cc1cn(C)c2ccccc12)NC(=O)[C@H](C)NC(=O)[C@@H]1CCCN1C(=O)OCc1ccccc1` [compound 7, Z-(L)-Pro-(L)-Ala-(1)-Me-(L)-TrpOMe] (Cbz-Pro-Ala-[Trp(1-Me)]-OMe), in experiment [2] (2 mg/Kg i.v.), the anti-hypertensive effect result is reported as “good” and the reduction in pressure came to 10%.
For `COC(=O)[C@H](Cc1c[nH]c2ccccc12)NC(=O)[C@H](CC(C)C)NC(=O)c1ccco1` [compound 8, 2-Fur-(L)-Leu-(L)-TrpOMe], the anti-inflammatory effect result in the experiment on carraginine edema is listed as “slight”. In addition, the immune response entry in experiment [3] is on record as “strongly stimulated even with small doses of peptide”. In experiment [2] (4 mg/Kg i.v.), the anti-hypertensive effect entry was “slight”.
With `COC(=O)[C@H](Cc1c[nH]c2ccccc12)NC(=O)[C@H](CC(C)C)NC(=O)c1ccc[nH]1` [compound 9, 2-Pyrrolyl-(L)-Leu-(L)-TrpOMe], the anti-inflammatory effect result with carraginine edema is recorded as “bland reduction”. In addition, the anti-hypertensive effect result in experiment [2] (dose not stated) is recorded as “slight”.
Turning to `COC(=O)C(Cc1c[nH]c2ccccc12)NC(=O)C(CC(C)C)NC(=O)C1CCCN1C.Cl` (stereo not shown) [compound 10, N-Me-(L)-Pro-(L)-Leu-(L)-TrpOMe.HCl], the immune response result in experiment [3] is listed as “slightly increased”. In addition, the analgesic effect result in experiment [4] is reported as “low”. Besides, in experiment [2] (2 mg/Kg i.v.), the anti-hypertensive effect result is recorded as “excellent” and the reduction in pressure is given as 15-20%.
Turning to `COC(=O)C(Cc1c[nH]c2ccccc12)NC(=O)C(CC(C)C)NC(=O)C1C=CCN1C(=O)OC(C)(C)C` (stereo not drawn) [compound 13, Boc-\/^3,4-(L)-Pro-(L)-Leu-(L)-TrpOMe] (Boc-[ΔPro]-Leu-Trp-OMe; configuration not given here), the immune response entry in experiment [3] was “slightly increases”. Besides, the anti-hypertensive effect result in experiment [2] (dose not stated) is reported as “slightly anti-hypertensive”.
As to `COC(=O)[C@H](Cc1c[nH]c2ccccc12)NC(=O)[C@H](CC(C)C)NC(=O)[C@@H]1CCCCN1C(=O)OCc1ccccc1` [compound 15, Z-(L)-Pip-(L)-Leu-(L)-TrpOMe] (Cbz-[Pip]-Leu-Trp-OMe), the anti-inflammatory effect entry in the experiment on carraginine edema is “consistent”. For the same compound, the immune response result in experiment [3] was “slight increase”. Besides, in experiment [2] (2 mg/Kg i.v.), the anti-hypertensive effect entry is “good” and the reduction in pressure entry is “up to 30%”.
In the case of `COC(=O)C(Cc1c[nH]c2ccccc12)NC(=O)C(CC(C)C)NC(=O)C1CC(O)CN1C(=O)OCc1ccccc1` (stereo not drawn) [compound 16, Z-(L)-Hyp-(L)-Leu-(L)-TrpOMe] (Cbz-[Hyp]-Leu-Trp-OMe; configuration not given here), the analgesic effect result in experiment [4] is listed as “modest”. Moreover, the anti-hypertensive effect entry in experiment [2] (dose not stated) is “bland”.
Consider `COC(=O)C(Cc1c[nH]c2ccccc12)NC(=O)C(CC(C)C)NC(=O)C1CCN1C(=O)OCc1ccccc1` [compound 17, z-(S)-Aze-(L)-Leu-(L)-TrpOMe] (Cbz-[Aze]-Leu-Trp-OMe; configuration not given here), for which the anti-inflammatory effect result in the experiment on carraginine edema is recorded as “bland”. Also, the anti-hypertensive effect entry in experiment [2] (dose not stated) was “slight”.
For `COC(=O)C(NC(=O)CNC(=O)C1CCC(=O)N1)c1ccccc1` (stereo not drawn) [compound 22, (L)-Pyr-Gly-(L)-PhgOMe] ([pGlu]-Gly-[Phg]-OMe; configuration not given here), in the experiment with carraginine edema, the anti-inflammatory effect entry is on record as “very good” and the reduction of edema turned out to be 70%. Also, in experiment [3], the immune response result is given as “increase”. In experiment [2] (4 mg/Kg i.p.), the anti-hypertensive effect result was “excellent” and the pressure values reduced was determined as 20%.
On to “(L)-Pyr-(L)-Leu-(S)-CytOMe [compound 25]”, for which the analgesic effect entry in experiment [4] is on record as “weak”. In experiment [2] (dose not stated), the anti-hypertensive effect result was “bland”.
Take (L)-Pyr-Gly-(L)-CypOMe [compound 24]: the anti-inflammatory effect entry in the experiment on carraginine edema is “moderate”. For the same compound, in experiment [2] (dose not stated), the anti-hypertensive effect entry was “bland”.
(L)-Pyr-Gly-(L)-Pme [compound 23]: the “reduction of contorsions during the Writhing test” value in experiment [5] turned out to be 80%. The immune response result in experiment [3] is given as “good”. Besides, in experiment [4], the analgesic effect entry is reported as “excellent”. Besides, the anti-hypertensive effect result in experiment [2] (8 mg/Kg i.p.) is reported as “good”.
Take “(S)-Tfc-(L)-Leu-(L)-TrpOMe [compound 18]”: the immune response entry in experiment [3] was “moderate”. Besides, the anti-hypertensive effect result in experiment [2] (dose not stated) was “bland”.
As for “Boc-(L)-Mep-(L)-Leu-(L)-TrpOMe [compound 12]”, the anti-inflammatory effect result with carraginine edema is given as “reduction of the inflammatory response”. Moreover, the anti-hypertensive effect result in experiment [2] (dose not stated) is listed as “bland”.
On to “Z-(L)-Pro-(L)-Ala-(L)-CypOMe [compound 11]”, for which, in the experiment with carraginine edema, the anti-inflammatory effect result is “moderate”. In addition, in experiment [2] (dose not stated), the anti-hypertensive effect entry was “slight”.
Turning to “Z-(L)-Pro-(L)-Ala-(L)-OmtOMe [compound 4]”, the immune response result in experiment [3] is “slightly increased”. For the same compound, the anti-hypertensive effect entry in experiment [2] (8 mg/Kg i.v.) was “bland”.
On to Z-(L)-Pro-(L)-Ala-(L)-Pme [compound 6], for which, in the experiment with carraginine edema, the anti-inflammatory effect result is reported as “rather weak”. In addition, the “reduction of contorsions during the Writhing test” value in experiment [5] came to 70%. The immune response result in experiment [3] is “more consistent”. For the same compound, in experiment [4], the analgesic effect result is “good”. In addition, the “extension of time in the Hot Plate test” value in experiment [1] (dose not stated) is 25%. Besides, the anti-hypertensive effect result in experiment [2] (2 mg/Kg i.v.) was “good”. The pressure reduced entry in experiment [2] (2 mg/Kg i.v., after one hour) is given as “approximately 25%”.
“Z-(L)-Pro-(L)-Ala-(S)-CytOEt [compound 1]”: in experiment [3] (PHA stimulation), the “response of lymphocytes stimulated by phytohemoagglutinine (PHA)” value was “increases”. In experiment [1] (4 mg/Kg i.p.), the “pain killing effect under the Hot Plate test” value was “slight”. For the same compound, in experiment [2] (4 mg/Kg i.p.), the anti-hypertensive effect entry was “good”, the “duration of the anti-hypertensive effect” value is on record as “maintained for a number of hours” and the pressure values reduced is given as 15-20%.
Regarding Z-(L)-Pro-(L)-Ala-CytH [compound 3], the anti-hypertensive effect entry in experiment [2] (8 mg/Kg i.p.) is “bland”.
Z-(L)-Pro-(L)-Ala-TrpH [compound 2]: the immune response entry in experiment [3] is “increased, but to a lesser extent than in the previous compound”. Also, the anti-hypertensive effect result in experiment [2] (dose not stated) is on record as “comparable to that of compound 1”.
“Z-(L)-Pyr-(L)-Leu-(L)-TrpOMe [compound 19]”: in the experiment with carraginine edema, the anti-inflammatory effect result was “fair”. Besides, the anti-hypertensive effect result in experiment [2] (dose not stated) is “slight”.
“Z-(L)-Pyr-(L)-Leu-(S)-CypOMe [compound 21]”: in experiment [3], the immune response entry is recorded as “good”. Besides, the anti-hypertensive effect entry in experiment [2] (dose not stated) is given as “slight”.
Take “Z-(L)-Pyr-(L)-Leu-(S)-CytOMe [compound 20]”: the anti-inflammatory effect entry in the experiment on carraginine edema is “fair”. In addition, in experiment [2] (dose not stated), the anti-hypertensive effect result is “bland”.
For “Z-(S)-Dhi-(L)-Leu-(L)-TrpOMe [compound 14]”, in experiment [4], the analgesic effect result is recorded as “moderate”. Further, in experiment [2] (dose not stated), the anti-hypertensive effect entry is “bland reduction”.
